This is an account of results in US10953027B2, “Active agents and methods of their use for the treatment of metabolic disorders and nonalcoholic fatty liver disease” (Flagship Pioneering Innovations V, Inc., priority 2018, dated 2021).

What all share (format): in vitro ADME
Series [1] in a line: Assay 2. Stability in Simulated Intestinal Fluid (SIF). Particulars: 1 μM, 37° C., SIF pH 6.7 with pancreatin. The essentials:
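Acylated compounds at 1 μM (from 1 mM DMSO stock) in fresh SIF: FaSSIF with pancreatin in pH 6.7 phosphate buffer, agitated at 37 °C. Aliquots from T0 onward quenched with 1 volume acetonitrile; LC/MS gives degradation rates.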

The nature of series [2]: Assay 3. Fecal Incubation Stability. As to conditions: 1 or 10 μM, human fecal slurry, anaerobic. The procedure: Assay 3. Fecal Incubation Stability. This assay was used to assess the stability of an acylated active agent in a large intestine. All experiments were performed in an anaerobic chamber containing 90% nitrogen, 5% hydrogen and 5% carbon dioxide. Human fecal matter in a slurry (15% WV) is added to 96 well plates containing YCFA media or other suitable media (1.6 mL). Compounds were added to each individual well to reach a final analyte concentration of 1 or 10 μM, and the material was mixed by pipetting. At set time points a sample was removed, quenched with acetonitrile, and analyzed by LC/MS.

Series [3] in a line: Assay 1. Stability in Simulated Gastric Fluid (SGF). Particulars: 1 μM, 37° C., SGF pH 1.6 with pepsin. The essentials: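 Acylated compounds at a final 1 μM (diluted from 1 mM DMSO stock) were incubated at 37 °C in SGF of pH 1.6 NaCl buffer with FaSSIF powder and 0.1 mg/mL pepsin. Aliquots were quenched with acetonitrile at T0 and regular intervals, and degradation rates were determined by LC/MS.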

Turning to `O=C(CCc1c[nH]c2ccccc12)O[C@@H]1O[C@H](C(=O)O)[C@@H](OC(=O)CCc2c[nH]c3ccccc23)[C@H](OC(=O)CCc2c[nH]c3ccccc23)[C@H]1OC(=O)CCc1c[nH]c2ccccc12` [Compound 82, (2S,3S,4S,5R,6S)-3,4,5,6-tetrakis({[3-(1H-indol-3-yl)propanoyl]oxy})oxane-2-carboxylic Acid], in series [1], the “Assay 2 (SIF) (% @ Remaining 4 hours)” value is on record as “A (A: <25% of the tested compound remaining)”. Moreover, the “Assay 3 (% Remaining at 24 h)” value in series [2] is reported as “A (A: <25% of the tested compound remaining)”.
Consider `CCCC(=O)OC[C@H]1O[C@H](OC)[C@H](OC(=O)CCC)[C@@H](OC(=O)CCC)[C@H]1OC(=O)CCC` [Compound 89, [(2R,3S,4S,5R,6S)-3,4,5-tris(butanoyloxy)-6-methoxyoxan-2-yl]methyl Butanoate], for which, in series [1], the “Assay 2 (SIF) (% @ Remaining 4 hours)” value was “A (A: <25% of the tested compound remaining)”. Moreover, the “Assay 3 (% Remaining at 24 h)” value in series [2] was “A (A: <25% of the tested compound remaining)”.
Consider `CCCC(=O)OC[C@H]1O[C@@H](OC)[C@H](OC(=O)CCC)[C@@H](OC(=O)CCC)[C@@H]1OC(=O)CCC` [Compound 91, [(2R,3R,4S,5R,6R)-3,4,5-tris(butanoyloxy)-6-methoxyoxan-2-yl]methyl Butanoate], for which, in series [1], the “Assay 2 (SIF) (% @ Remaining 4 hours)” value is recorded as “A (A: <25% of the tested compound remaining)”. In addition, the “Assay 3 (% Remaining at 24 h)” value in series [2] was “A (A: <25% of the tested compound remaining)”.
Take `CCC(=O)OC[C@H]1O[C@@H](OC)[C@H](OC(=O)CC)[C@@H](OC(=O)CC)[C@@H]1OC(=O)CC` [Compound 92, [(2R,3R,4S,5R,6R)-6-methoxy-3,4,5-tris(propanoyloxy)oxan-2-yl]methyl Propanoate]: the “Assay 2 (SIF) (% @ Remaining 4 hours)” value in series [1] is given as “A (A: <25% of the tested compound remaining)”. Further, the “Assay 3 (% Remaining at 24 h)” value in series [2] is recorded as “A (A: <25% of the tested compound remaining)”.
Take `CCCC(=O)OC[C@H]1O[C@@H](OC)[C@H](OC(=O)CCC)[C@@H](OC(=O)CCC)[C@H]1OC(=O)CCC` [Compound 93, [(2R,3S,4S,5R,6R)-3,4,5-tris(butanoyloxy)-6-methoxyoxan-2-yl]methyl Butanoate]: in series [1], the “Assay 2 (SIF) (% @ Remaining 4 hours)” value was “A (A: <25% of the tested compound remaining)”. Besides, the “Assay 3 (% Remaining at 24 h)” value in series [2] is on record as “A (A: <25% of the tested compound remaining)”.
For `O=C(Cc1c[nH]c2ccccc12)O[C@@H]1OC[C@H](OC(=O)Cc2c[nH]c3ccccc23)[C@H](OC(=O)Cc2c[nH]c3ccccc23)[C@H]1OC(=O)Cc1c[nH]c2ccccc12` [Compound 178, (2S,3R,4S,5S)-3,4,5-tris({[2-(1H-indol-3-yl)acetyl]oxy})oxan-2-yl 2-(1H-indol-3-yl)acetate], the “Assay 3 (% Remaining at 24 h)” value in series [2] was “A (A: <25% of the tested compound remaining)”.
Regarding `O=C(CCc1c[nH]c2ccccc12)O[C@H]1OC[C@@H](OC(=O)CCc2c[nH]c3ccccc23)[C@@H](OC(=O)CCc2c[nH]c3ccccc23)[C@H]1OC(=O)CCc1c[nH]c2ccccc12` [Compound 182, (2R,3R,4R,5R)-3,4,5-tris({[3-(1H-indol-3-yl)propanoyl]oxy})oxan-2-yl 3-(1H-indol-3-yl)propanoate], the “Assay 1 (SGF) (% Remaining @ 1 hours)” value in series [3] is “C (C: >75% of the tested compound remaining)”. Besides, in series [1], the “Assay 2 (SIF) (% @ Remaining 4 hours)” value is “A (A: <25% of the tested compound remaining)”.
Consider `CCCC(=O)Oc1cc(OC(=O)CCC)c2c(=O)c(OC(=O)CCC)c(-c3cc(OC(=O)CCC)c(OC(=O)CCC)c(OC(=O)CCC)c3)oc2c1` [Compound 200, 3,5-bis(butanoyloxy)-4-oxo-2-[3,4,5-tris(butanoyloxy)phenyl]-4H-chromen-7-yl Butanoate], for which, in series [3], the “Assay 1 (SGF) (% Remaining @ 1 hours)” value is “C (C: >75% of the tested compound remaining)”. Further, in series [1], the “Assay 2 (SIF) (% @ Remaining 4 hours)” value is recorded as “C (C: >75% of the tested compound remaining)”.
As for `CCCC(=O)Oc1cc(OC(=O)CCC)c2c(=O)cc(-c3ccc(OC(=O)CCC)c(OC(=O)CCC)c3)oc2c1` [Compound 202, 2-[3,4-bis(butanoyloxy)phenyl]-5-(butanoyloxy)-4-oxo-4H-chromen-7-yl Butanoate], in series [3], the “Assay 1 (SGF) (% Remaining @ 1 hours)” value was “C (C: >75% of the tested compound remaining)”. Moreover, the “Assay 2 (SIF) (% @ Remaining 4 hours)” value in series [1] was “A (A: <25% of the tested compound remaining)”.
Take `[2H]C([2H])([2H])C([2H])([2H])CC(=O)O[C@@H]1[C@@H](OC(=O)CC([2H])([2H])C([2H])([2H])[2H])[C@H](Oc2ccc(N)cc2C(=O)O)OC[C@H]1OC(=O)CC([2H])([2H])C([2H])([2H])[2H]` [Compound 230, 5-amino-2-{[(2S,3R,4S,5R)-3,4,5-tris[(3,3,4,4,4-^2H5)butanoyloxy]oxan-2-yl]oxy}benzoic Acid]: in series [2], the “Assay 3 (% Remaining at 24 h)” value is “B (B: 25-75% of the tested compound remaining)”.
Consider `[2H]C([2H])([2H])C([2H])([2H])CC(=O)O[C@@H]1[C@@H](OC(=O)CC([2H])([2H])C([2H])([2H])[2H])[C@H](Oc2ccc(N)cc2C(=O)O)OC[C@H]1O` [Compound 234, 5-amino-2-{[(2S,3R,4S,5R)-3,4-bis[(3,3,4,4,4-^2H5)butanoyloxy]-5-hydroxyoxan-2-yl]oxy}benzoic Acid], for which the “Assay 3 (% Remaining at 24 h)” value in series [2] was “B (B: 25-75% of the tested compound remaining)”.
As for `O=C(CCc1c[nH]c2ccccc12)Oc1cc(C(=O)O)cc(OC(=O)CCc2c[nH]c3ccccc23)c1OC(=O)CCc1c[nH]c2ccccc12` [Compound 240, 3,4,5-tris({[3-(1H-indol-3-yl)propanoyl]oxy})benzoic Acid], the “Assay 1 (SGF) (% Remaining @ 1 hours)” value in series [3] is listed as “A (A: <25% of the tested compound remaining)”. Further, the “Assay 2 (SIF) (% @ Remaining 4 hours)” value in series [1] was “C (C: >75% of the tested compound remaining)”.
As for `CCC(=O)Oc1ccc2c(c1)oc(=O)c1cc(OC(=O)CC)c(OC(=O)CC)cc12` [Compound 242, [6-oxo-8,9-di(propanoyloxy)benzo[c]chromen-3-yl] propanoate], in series [3], the “Assay 1 (SGF) (% Remaining @ 1 hours)” value is given as “C (C: >75% of the tested compound remaining)”. The “Assay 2 (SIF) (% @ Remaining 4 hours)” value in series [1] was “A (A: <25% of the tested compound remaining)”.
In the case of `CCCC(=O)Oc1ccc2c(c1)oc(=O)c1cc(OC(=O)CCC)c(OC(=O)CCC)cc12` [Compound 248, 8,9-bis(butanoyloxy)-6-oxo-6H-benzo[c]chromen-3-yl Butanoate], the “Assay 3 (% Remaining at 24 h)” value in series [2] is on record as “A (A: <25% of the tested compound remaining)”.
Turning to `O=C(CCc1c[nH]c2ccccc12)O[C@@H]1[C@H](OC(=O)CCc2c[nH]c3ccccc23)C=C(C(=O)O)C[C@H]1OC(=O)CCc1c[nH]c2ccccc12` [Compound 253, (3R,4S,5R)-3,4,5-tris({[3-(1H-indol-3-yl)propanoyl]oxy})cyclohex-1-ene-1-carboxylic Acid], in series [3], the “Assay 1 (SGF) (% Remaining @ 1 hours)” value is recorded as “B (B: 25-75% of the tested compound remaining)”. Moreover, in series [1], the “Assay 2 (SIF) (% @ Remaining 4 hours)” value is “B (B: 25-75% of the tested compound remaining)”.
On to `CCC(=O)O[C@@H]1[C@H](OC(=O)CC)C=C(C(=O)O)C[C@H]1OC(=O)CC` [Compound 254, (3R,4S,5R)-3,4,5-tris(propanoyloxy)cyclohex-1-ene-1-carboxylic Acid], for which the “Assay 3 (% Remaining at 24 h)” value in series [2] is “B (B: 25-75% of the tested compound remaining)”.
Still for that read-out and setting: the entry for `O=C(Cc1c[nH]c2ccccc12)Oc1ccc(/C=C/c2cc(OC(=O)Cc3c[nH]c4ccccc34)cc(OC(=O)Cc3c[nH]c4ccccc34)c2)cc1` [Compound 260, 4-[(1E)-2-[3,5-bis({[2-(1H-indol-3-yl)acetyl]oxy})phenyl]ethenyl]phenyl 2-(1H-indol-3-yl)acetate] is “A (A: <25% of the tested compound remaining)”.
